Laboratory results reported in US9931428B2, “Ophthalmic compositions” (priority 2011, dated 2018).

Experiments:
Assay in all cases: BS EN1276 quantitative suspension test, bactericidal activity, dirty conditions
Type in all cases: cell-based
Conditions in all cases: aqueous solution of test article; EN 1276 dirty conditions
[1] = system: Pseudomonas aeruginosa ATCC 15442
Bacillus subtillus 10262 = system: Bacillus subtillus 10262
[2] = system: Staphylococcus aureus NCTC 6571
Escherichia coli 11867 = system: Escherichia coli 11867

SMILES: O=C(O)CC(O)(CC(=O)O)C(=O)O [Citric acid, citric acid]
- Microbial reduction [1]: 2.69 × 10^3
- Microbial reduction (Bacillus subtillus 10262): 2.29 × 10^3
- Microbial reduction [2]: 3.02 × 10^2
- Microbial reduction (Escherichia coli 11867): 6.46 × 10^2
